From patent US20240174618A1, “SUBSTITUTED (2-HETEROARYLOXYPHENYL)SULFONATES, SALTS THEREOF AND THEIR USE AS HERBICIDAL AGENTS” (Bayer Aktiengesellschaft, priority 2021, published 2024)

Key:
Type in all cases: in vivo
[1] = tested on: Veronica persica (VERPE); experiment: E. Herbicidal post-emergence efficacy, VERPE
Method in brief: (§1)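 Visual scoring against untreated plants was done roughly 3 weeks after spraying (0% = no effect, 100% = plants dead). Spray application at 320 g/ha or lower, 600 l/ha water with 0.5% additive, was made onto green parts of one-leaf-stage greenhouse plants grown 2-3 weeks in sandy loam.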

[2] = tested on: Veronica persica (VERPE); experiment: A. Herbicidal pre-emergence efficacy, VERPE; conditions: for Pre-emergence efficacy against VERPE: dosage 80 g/ha
Method in brief: (§2)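 Applied before emergence onto covering soil at rates of 1280 g/ha or less, using 600 L/ha spray water with 0.5% additive. Scoring: visual % efficacy after ~3 weeks, greenhouse.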

[3] = tested on: Polygonum convolvulus (POLCO); experiment: E. Herbicidal post-emergence efficacy, POLCO
Experimental: Seeds of monocotyledonous and dicotyledonous weeds and crop plants were placed in sandy loam in plastic or organic planting pots, covered with soil and cultivated in a greenhouse under controlled growth conditions. 2 to 3 weeks after sowing, the test plants were treated at the one-leaf stage. The compounds of the invention, formulated in the form of wettable powders (WP) or as emulsion concentrates (EC), were then sprayed onto the green parts of the plants as aqueous suspension or emulsion with addition of 0.5% additive at a water application rate of 600 l/ha (converted). After the test plants had been kept in the greenhouse under optimum growth conditions for about 3 weeks, the activity of the preparations was rated visually in comparison to untreated controls.
For example, • 100% efficacy=plants have died, • 0% action=like untreated control plants.
Tables E1a to E12b below show the effects of selected compounds of the general formula (I) according to table 1 on various harmful plants at an application rate corresponding to 320 g/ha or less, which were obtained by the experimental procedure mentioned above.

[4] = tested on: Lolium rigidum (LOLRI); experiment: A. Herbicidal pre-emergence efficacy, LOLRI
Method in brief: as §2

[5] = tested on: Echinochloa crus-galli (ECHCG); experiment: E. Herbicidal post-emergence efficacy, ECHCG
Method in brief: as §1

[6] = tested on: Triticum aestivum (TRZAS); experiment: D. Pre-emergence effect on useful plants, TRZAS; conditions: useful plant
Description: Seeds of monocotyledonous and dicotyledonous weed plants and crop plants were placed in plastic or organic planting pots and covered with soil. The compounds of the invention, formulated in the form of wettable powders (WP) or as emulsion concentrates (EC), were then applied to the surface of the covering soil as aqueous suspension or emulsion with addition of 0.5% additive at a water application rate equivalent to 600 l/ha (converted). After the treatment, the pots were placed in a greenhouse and kept under good growth conditions for the test plants. After about 3 weeks, the efficacy of the preparations was scored visually in comparison with untreated controls as percentages. For example, • 100% efficacy=plants have died, • 0% efficacy=like untreated control plants.
Tables D1a to D5b below show the effects of selected compounds of the general formula (I) according to table 1 on various useful plants at an application rate corresponding to 320 g/ha or less, which were obtained by the experimental procedure mentioned above.

[7] = tested on: Echinochloa crus-galli (ECHCG); experiment: C. Herbicidal pre-emergence efficacy, ECHCG; conditions: scored after about 3 weeks
Method in brief: (§3)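 Pre-emergence test: formulated compounds sprayed as aqueous suspension or emulsion with 0.5% additive at 600 l/ha onto soil covering sown seeds, at rates corresponding to 320 g/ha or less. After about 3 weeks in greenhouse, efficacy scored visually as percent versus untreated controls (100% = plants dead).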

[8] = tested on: Digitaria sanguinalis (DIGSA); experiment: B. Herbicidal post-emergence efficacy, DIGSA; conditions: rated visually after about 3 weeks
Method in brief: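 Post-emergence greenhouse test: one-leaf-stage plants, compound (WP/EC, +0.5% additive, 600 L/ha water, ≤1280 g/ha) applied to green parts; % efficacy scored visually vs untreated after ~3 wk; 100% = plants died.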

[9] = tested on: Kochia scoparia (KCHSC); experiment: C. Herbicidal pre-emergence efficacy, KCHSC
Method in brief: as §3

Row | SMILES | Post-emergence efficacy against VERPE in % ([1]; application rate 80 g/ha) [%] | Post-emergence efficacy against VERPE in % ([1]; application rate 320 g/ha) [%] | Pre-emergence efficacy against VERPE in % ([2]; 320 g/ha) [%] | Pre-emergence efficacy against VERPE in % ([2]; 1280 g/ha) [%] | Pre-emergence efficacy against VERPE [2] [%] | Post-emergence efficacy against POLCO in % ([3]; application rate 80 g/ha) [%] | Post-emergence efficacy against POLCO in % ([3]; application rate 320 g/ha) [%] | Pre-emergence efficacy against LOLRI ([4]; dosage 320 g/ha) [%] | Pre-emergence efficacy against LOLRI ([4]; dosage 1280 g/ha) [%] | Post-emergence efficacy against ECHCG in % ([5]; application rate 320 g/ha) [%] | Pre-emergence efficacy against TRZAS in % ([6]; application rate 80 g/ha) [%] | Pre-emergence efficacy against ECHCG ([7]; 80 g/ha) [%] | Pre-emergence efficacy against ECHCG ([7]; 320 g/ha) [%] | Post-emergence efficacy against ECHCG in % ([5]; application rate 80 g/ha) [%] | Post-emergence efficacy against DIGSA in % ([8]; 1280 g/ha) [%] | Pre-emergence efficacy against TRZAS in % ([6]; application rate 320 g/ha) [%] | Post-emergence efficacy against DIGSA in % ([8]; 320 g/ha) [%] | Pre-emergence efficacy against KCHSC in % ([9]; application rate 80 g/ha) [%] | Pre-emergence efficacy against KCHSC in % ([9]; application rate 320 g/ha) [%]
1 | O=S(=O)(CCCCl)Oc1ccccc1Oc1ncc(Cl)cn1 [Example I-2] | 100 | 100 | 100 | 100 | 100 | 100 | 100 | 90 | 100 | 100 | 0 | 90 | 100 |  |  |  |  |  | 
2 | CCCS(=O)(=O)Oc1ccccc1Oc1ncc(Cl)cn1 [Example I-3] | 80 | 90 | 100 | 100 | 100 |  | 90 | 100 | 100 | 90 | 10 | 90 | 100 |  |  |  |  |  | 
3 | O=S(=O)(CCC(F)(F)F)Oc1ccccc1Oc1ncc(Cl)cn1 [Example I-8] | 90 | 100 | 100 | 100 | 100 | 90 | 90 | 90 | 90 | 90 | 20 | 100 | 100 | 90 |  |  |  |  | 
4 | O=S(=O)(CCl)Oc1ccccc1Oc1ncc(Cl)cn1 [Example I-9] | 80 | 90 |  | 100 |  |  | 90 |  | 90 |  | 20 |  | 90 |  |  |  |  |  | 
5 | Cc1cccc(OS(=O)(=O)CCCCl)c1Oc1ncc(Cl)cn1 [Example I-12] | 100 | 100 | 90 | 100 |  |  | 100 |  | 90 | 90 | 0 | 90 | 90 |  |  |  |  |  | 
6 | O=S(=O)(CCCCl)Oc1cccc(F)c1Oc1ncc(Cl)cn1 [Example I-13] |  | 90 |  | 100 |  |  | 80 |  | 90 |  | 10 |  | 80 |  | 90 | 10 |  |  | 
7 | O=S(=O)(CC1CC1)Oc1ccccc1Oc1ncc(Cl)cn1 [Example I-23] | 90 | 100 | 100 | 100 | 90 | 100 | 100 | 90 | 90 | 100 | 0 | 100 | 100 |  | 100 |  | 90 |  | 
8 | CCCCCS(=O)(=O)Oc1ccccc1Oc1ncc(Cl)cn1 [Example I-24] | 90 | 100 |  |  |  |  |  |  | 100 | 80 | 0 |  | 100 |  | 90 | 0 | 90 |  | 
9 | CC(C)CCS(=O)(=O)Oc1ccccc1Oc1ncc(Cl)cn1 [Example I-25] | 90 | 100 |  | 90 |  |  |  | 90 | 100 | 100 | 0 | 100 | 100 |  | 100 | 0 | 90 |  | 
10 | O=S(=O)(CCC(F)(F)F)Oc1c(F)cccc1Oc1ncc(Br)cn1 [Example I-40] | 100 | 100 | 100 | 100 | 100 | 100 | 100 | 100 | 100 | 100 |  | 100 | 100 | 100 | 90 |  | 90 | 100 | 100
11 | O=S(=O)(CCC(F)(F)F)Oc1c(F)cccc1Oc1ncc(Cl)cn1 [Example I-48] | 100 | 100 | 100 | 100 | 90 | 100 | 100 | 90 | 90 | 100 |  | 100 | 100 | 100 | 90 |  | 90 | 100 | 100
12 | O=S(=O)(CCCC(F)(F)F)Oc1c(F)cccc1Oc1ncc(Cl)cn1 [Example I-49] | 100 | 100 | 100 | 100 | 90 | 100 | 100 | 90 | 90 | 100 |  | 100 | 100 | 100 | 90 |  | 90 | 100 | 100
13 | O=S(=O)(CC1CC(F)(F)C1)Oc1c(F)cccc1Oc1ncc(Cl)cn1 [Example I-53] | 100 | 100 | 100 | 100 | 100 | 100 | 100 | 90 | 100 | 100 |  | 100 | 100 | 100 | 90 |  | 90 | 100 | 100
14 | O=S(=O)(CCCC(F)F)Oc1c(F)cccc1Oc1ncc(Cl)cn1 [Example I-56] | 100 | 100 | 100 | 100 |  |  | 100 | 100 | 100 | 100 |  | 100 | 100 | 80 | 90 |  | 90 | 100 | 100
